From PMC12621043, “Un-LOK-ing a New Approach for Conformational Selective Targeting of STK10 (LOK)” (ACS Medicinal Chemistry Letters, 2025)

Target: T1, PKMYT1A (Homo sapiens, UniProt Q99640)
T1 construct: purchased in-house DSF kinase panel (SGC-style construct names; the trailing letter is the construct ID)
T1 sequence (Q99640 75-362): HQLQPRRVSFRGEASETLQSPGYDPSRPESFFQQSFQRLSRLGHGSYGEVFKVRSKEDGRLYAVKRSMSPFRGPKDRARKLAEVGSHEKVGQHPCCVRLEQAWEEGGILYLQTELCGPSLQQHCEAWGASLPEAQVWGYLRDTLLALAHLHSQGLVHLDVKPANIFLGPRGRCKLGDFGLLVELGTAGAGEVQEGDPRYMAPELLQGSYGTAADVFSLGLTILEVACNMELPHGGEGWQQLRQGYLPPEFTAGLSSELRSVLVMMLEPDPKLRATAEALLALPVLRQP
Experiment: DSF Tm panel
Format: binding
Settings: 10 μM compound

Row | Compound | ΔTm at 10 µM [°C]
1 | Cc1cc(Br)ccc1CNC(=O)Nc1ccc2cc1OCCOCCNc1ccn3ncc-2c3n1 [compound 24] | 0.5
2 | Cc1ccc(F)cc1CNC(=O)Nc1ccc2cc1OCCOCCNc1ccn3ncc-2c3n1 [compound 26] | 0.3
3 | O=C(NCc1ccccc1C(F)(F)F)Nc1ccc2cc1OCCOCCNc1ccn3ncc-2c3n1 [compound 27] | 0.7

Target: T2, MAPK10A (Homo sapiens, UniProt P53779)
T2 construct: purchased in-house DSF kinase panel (SGC-style construct names; the trailing letter is the construct ID)
T2 sequence (P53779 39-402): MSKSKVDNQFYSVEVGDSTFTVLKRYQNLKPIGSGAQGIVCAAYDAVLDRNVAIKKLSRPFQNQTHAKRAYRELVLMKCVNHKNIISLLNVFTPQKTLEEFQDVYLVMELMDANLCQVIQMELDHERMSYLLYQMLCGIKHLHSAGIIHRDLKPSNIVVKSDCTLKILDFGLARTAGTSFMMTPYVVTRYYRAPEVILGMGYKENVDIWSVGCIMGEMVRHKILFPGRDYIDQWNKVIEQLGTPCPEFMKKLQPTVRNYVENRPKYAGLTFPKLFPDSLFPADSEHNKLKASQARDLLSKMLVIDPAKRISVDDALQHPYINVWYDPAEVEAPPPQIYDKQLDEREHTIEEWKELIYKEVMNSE
Experiment: DSF Tm panel
Format: binding
Settings: 10 μM compound

Row | Compound | ΔTm at 10 µM [°C]
4 | Cc1cc(Br)ccc1CNC(=O)Nc1ccc2cc1OCCOCCNc1ccn3ncc-2c3n1 [compound 24] | 0.5
5 | Cc1ccc(F)cc1CNC(=O)Nc1ccc2cc1OCCOCCNc1ccn3ncc-2c3n1 [compound 26] | 0.5
6 | O=C(NCc1ccccc1C(F)(F)F)Nc1ccc2cc1OCCOCCNc1ccn3ncc-2c3n1 [compound 27] | 0.7

Target: T3, PAK1A (Homo sapiens, UniProt Q13153)
T3 construct: purchased in-house DSF kinase panel (SGC-style construct names; the trailing letter is the construct ID)
T3 sequence (Q13153 249-545): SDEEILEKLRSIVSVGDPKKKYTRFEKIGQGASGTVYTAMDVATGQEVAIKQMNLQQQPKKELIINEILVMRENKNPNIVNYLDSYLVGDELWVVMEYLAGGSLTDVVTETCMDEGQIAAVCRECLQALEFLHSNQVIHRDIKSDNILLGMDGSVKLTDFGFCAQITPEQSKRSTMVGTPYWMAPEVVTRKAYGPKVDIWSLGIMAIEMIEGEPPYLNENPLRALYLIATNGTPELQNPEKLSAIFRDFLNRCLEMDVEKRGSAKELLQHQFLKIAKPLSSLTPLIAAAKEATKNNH
Experiment: DSF Tm panel
Format: binding
Settings: 10 μM compound

Row | Compound | ΔTm at 10 µM [°C]
7 | Cc1cc(Br)ccc1CNC(=O)Nc1ccc2cc1OCCOCCNc1ccn3ncc-2c3n1 [compound 24] | 1.1
8 | Cc1ccc(F)cc1CNC(=O)Nc1ccc2cc1OCCOCCNc1ccn3ncc-2c3n1 [compound 26] | 0.7
9 | O=C(NCc1ccccc1C(F)(F)F)Nc1ccc2cc1OCCOCCNc1ccn3ncc-2c3n1 [compound 27] | 1.5

Target: T4, EPHA5A (Homo sapiens, UniProt P54756)
T4 construct: purchased in-house DSF kinase panel (SGC-style construct names; the trailing letter is the construct ID)
T4 sequence (P54756 653-939): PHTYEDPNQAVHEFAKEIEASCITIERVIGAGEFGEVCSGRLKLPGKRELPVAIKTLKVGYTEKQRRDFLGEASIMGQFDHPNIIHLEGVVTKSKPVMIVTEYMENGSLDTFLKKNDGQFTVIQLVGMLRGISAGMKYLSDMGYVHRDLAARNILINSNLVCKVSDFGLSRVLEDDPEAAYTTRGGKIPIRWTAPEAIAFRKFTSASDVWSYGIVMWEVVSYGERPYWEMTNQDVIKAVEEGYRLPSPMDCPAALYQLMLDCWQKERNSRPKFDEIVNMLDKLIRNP
Experiment: DSF Tm panel
Format: binding
Settings: 10 μM compound

Row | Compound | ΔTm at 10 µM [°C]
10 | Cc1cc(Br)ccc1CNC(=O)Nc1ccc2cc1OCCOCCNc1ccn3ncc-2c3n1 [compound 24] | 1.4
11 | Cc1ccc(F)cc1CNC(=O)Nc1ccc2cc1OCCOCCNc1ccn3ncc-2c3n1 [compound 26] | 1.1
12 | O=C(NCc1ccccc1C(F)(F)F)Nc1ccc2cc1OCCOCCNc1ccn3ncc-2c3n1 [compound 27] | 1.6

Target: T5, MARK3A (Homo sapiens, UniProt P27448)
T5 construct: purchased in-house DSF kinase panel (SGC-style construct names; the trailing letter is the construct ID)
T5 sequence (P27448 56-307): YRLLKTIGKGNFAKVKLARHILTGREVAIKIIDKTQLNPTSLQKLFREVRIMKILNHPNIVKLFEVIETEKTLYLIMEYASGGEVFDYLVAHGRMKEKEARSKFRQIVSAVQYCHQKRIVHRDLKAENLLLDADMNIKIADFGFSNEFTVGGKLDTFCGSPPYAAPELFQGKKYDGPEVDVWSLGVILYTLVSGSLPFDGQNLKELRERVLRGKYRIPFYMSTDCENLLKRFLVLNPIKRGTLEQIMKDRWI
Experiment: DSF Tm panel
Format: binding
Settings: 10 μM compound

Row | Compound | ΔTm at 10 µM [°C]
13 | Cc1cc(Br)ccc1CNC(=O)Nc1ccc2cc1OCCOCCNc1ccn3ncc-2c3n1 [compound 24] | 0.8
14 | Cc1ccc(F)cc1CNC(=O)Nc1ccc2cc1OCCOCCNc1ccn3ncc-2c3n1 [compound 26] | 0.2
15 | O=C(NCc1ccccc1C(F)(F)F)Nc1ccc2cc1OCCOCCNc1ccn3ncc-2c3n1 [compound 27] | 1.4

Target: T6, DAPK1 (DAPK1A) (Homo sapiens, UniProt P53355)
T6 construct: purchased in-house DSF kinase panel (SGC-style construct names; the trailing letter is the construct ID)
T6 sequence (P53355 1-285): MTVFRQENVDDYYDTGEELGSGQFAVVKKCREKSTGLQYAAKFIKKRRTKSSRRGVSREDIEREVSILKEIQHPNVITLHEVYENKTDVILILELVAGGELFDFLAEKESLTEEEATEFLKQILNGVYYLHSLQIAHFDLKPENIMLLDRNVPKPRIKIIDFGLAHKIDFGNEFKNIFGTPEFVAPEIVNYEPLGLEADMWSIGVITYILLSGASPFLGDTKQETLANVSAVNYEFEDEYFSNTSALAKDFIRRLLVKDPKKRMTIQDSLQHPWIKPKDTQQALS
Experiment: DSF Tm panel
Format: binding
Settings: 10 μM compound

Row | Compound | ΔTm at 10 µM [°C]
16 | Cc1cc(Br)ccc1CNC(=O)Nc1ccc2cc1OCCOCCNc1ccn3ncc-2c3n1 [compound 24] | -0.3
17 | Cc1ccc(F)cc1CNC(=O)Nc1ccc2cc1OCCOCCNc1ccn3ncc-2c3n1 [compound 26] | 0.2
18 | O=C(NCc1ccccc1C(F)(F)F)Nc1ccc2cc1OCCOCCNc1ccn3ncc-2c3n1 [compound 27] | 0.1

Target: T7, MST4A (Homo sapiens, UniProt Q9P289)
T7 construct: purchased in-house DSF kinase panel (SGC-style construct names; the trailing letter is the construct ID)
T7 sequence (Q9P289 1-300): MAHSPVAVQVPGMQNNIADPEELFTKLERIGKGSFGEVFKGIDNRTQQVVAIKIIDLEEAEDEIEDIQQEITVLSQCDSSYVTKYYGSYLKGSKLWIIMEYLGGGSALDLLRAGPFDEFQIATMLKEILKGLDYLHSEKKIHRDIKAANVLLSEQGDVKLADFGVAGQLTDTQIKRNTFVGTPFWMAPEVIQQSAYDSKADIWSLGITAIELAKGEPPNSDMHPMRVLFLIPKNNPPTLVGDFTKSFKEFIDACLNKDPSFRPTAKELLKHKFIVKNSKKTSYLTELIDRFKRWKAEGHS
Experiment: DSF Tm panel
Format: binding
Settings: 10 μM compound

Row | Compound | ΔTm at 10 µM [°C]
19 | Cc1cc(Br)ccc1CNC(=O)Nc1ccc2cc1OCCOCCNc1ccn3ncc-2c3n1 [compound 24] | 1.2
20 | Cc1ccc(F)cc1CNC(=O)Nc1ccc2cc1OCCOCCNc1ccn3ncc-2c3n1 [compound 26] | 0.8
21 | O=C(NCc1ccccc1C(F)(F)F)Nc1ccc2cc1OCCOCCNc1ccn3ncc-2c3n1 [compound 27] | 1.9

Target: T8, MAPK15A (MAPK15HSD) (Homo sapiens, UniProt Q8TD08)
T8 sequence (Q8TD08 13-304 limits assumed): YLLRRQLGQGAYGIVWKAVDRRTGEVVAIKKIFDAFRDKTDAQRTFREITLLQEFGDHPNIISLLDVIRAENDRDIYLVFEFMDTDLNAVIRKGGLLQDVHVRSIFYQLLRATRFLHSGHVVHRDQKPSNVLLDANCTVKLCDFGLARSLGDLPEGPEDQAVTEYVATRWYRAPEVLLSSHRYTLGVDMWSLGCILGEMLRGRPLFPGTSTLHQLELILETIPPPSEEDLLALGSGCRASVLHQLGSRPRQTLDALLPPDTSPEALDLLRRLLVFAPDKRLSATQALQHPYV
Experiment: DSF Tm panel
Format: binding
Settings: 10 μM compound

Row | Compound | ΔTm at 10 µM [°C]
22 | Cc1cc(Br)ccc1CNC(=O)Nc1ccc2cc1OCCOCCNc1ccn3ncc-2c3n1 [compound 24] | 0.7
23 | Cc1ccc(F)cc1CNC(=O)Nc1ccc2cc1OCCOCCNc1ccn3ncc-2c3n1 [compound 26] | 2.4
24 | O=C(NCc1ccccc1C(F)(F)F)Nc1ccc2cc1OCCOCCNc1ccn3ncc-2c3n1 [compound 27] | 2.4

Target: T9, MAPK9A (Homo sapiens, UniProt P45984)
T9 construct: purchased in-house DSF kinase panel (SGC-style construct names; the trailing letter is the construct ID)
T9 sequence (P45984 7-364): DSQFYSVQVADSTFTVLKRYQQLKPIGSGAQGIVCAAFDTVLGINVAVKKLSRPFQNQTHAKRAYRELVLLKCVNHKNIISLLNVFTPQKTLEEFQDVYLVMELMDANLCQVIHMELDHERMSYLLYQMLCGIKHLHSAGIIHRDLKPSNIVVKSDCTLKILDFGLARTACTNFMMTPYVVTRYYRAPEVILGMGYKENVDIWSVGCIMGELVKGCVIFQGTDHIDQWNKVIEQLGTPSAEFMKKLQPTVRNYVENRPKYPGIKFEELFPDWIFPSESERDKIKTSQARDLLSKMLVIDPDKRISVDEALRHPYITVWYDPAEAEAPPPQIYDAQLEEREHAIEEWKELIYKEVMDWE
Experiment: DSF Tm panel
Format: binding
Settings: 10 μM compound

Row | Compound | ΔTm at 10 µM [°C]
25 | Cc1cc(Br)ccc1CNC(=O)Nc1ccc2cc1OCCOCCNc1ccn3ncc-2c3n1 [compound 24] | -1.2
26 | Cc1ccc(F)cc1CNC(=O)Nc1ccc2cc1OCCOCCNc1ccn3ncc-2c3n1 [compound 26] | -1.6
27 | O=C(NCc1ccccc1C(F)(F)F)Nc1ccc2cc1OCCOCCNc1ccn3ncc-2c3n1 [compound 27] | -0.1

Target: T10, DYRK2A (Homo sapiens, UniProt Q92630)
T10 construct: purchased in-house DSF kinase panel (SGC-style construct names; the trailing letter is the construct ID)
T10 sequence (Q92630 1-601): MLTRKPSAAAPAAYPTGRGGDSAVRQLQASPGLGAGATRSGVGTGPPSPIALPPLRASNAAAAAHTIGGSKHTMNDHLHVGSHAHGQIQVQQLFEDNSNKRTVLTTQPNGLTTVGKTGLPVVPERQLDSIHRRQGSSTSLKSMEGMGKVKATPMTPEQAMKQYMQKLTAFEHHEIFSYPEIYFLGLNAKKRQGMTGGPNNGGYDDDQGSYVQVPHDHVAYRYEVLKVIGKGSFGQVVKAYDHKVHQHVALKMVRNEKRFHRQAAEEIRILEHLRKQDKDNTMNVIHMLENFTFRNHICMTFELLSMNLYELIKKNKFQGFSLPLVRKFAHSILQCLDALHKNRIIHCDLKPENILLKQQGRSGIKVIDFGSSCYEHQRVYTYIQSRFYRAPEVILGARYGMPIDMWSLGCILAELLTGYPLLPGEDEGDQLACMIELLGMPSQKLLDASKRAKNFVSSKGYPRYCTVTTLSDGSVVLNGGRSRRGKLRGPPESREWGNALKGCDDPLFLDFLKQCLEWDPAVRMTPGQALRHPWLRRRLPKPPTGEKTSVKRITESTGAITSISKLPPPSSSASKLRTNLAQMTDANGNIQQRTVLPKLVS
Experiment: DSF Tm panel
Format: binding
Settings: 10 μM compound

Row | Compound | ΔTm at 10 µM [°C]
28 | Cc1cc(Br)ccc1CNC(=O)Nc1ccc2cc1OCCOCCNc1ccn3ncc-2c3n1 [compound 24] | 0.5
29 | Cc1ccc(F)cc1CNC(=O)Nc1ccc2cc1OCCOCCNc1ccn3ncc-2c3n1 [compound 26] | 2.3
30 | O=C(NCc1ccccc1C(F)(F)F)Nc1ccc2cc1OCCOCCNc1ccn3ncc-2c3n1 [compound 27] | 0.8

Target: T11, FESA (Homo sapiens, UniProt P07332)
T11 construct: purchased in-house DSF kinase panel (SGC-style construct names; the trailing letter is the construct ID)
T11 sequence (P07332 whole entry): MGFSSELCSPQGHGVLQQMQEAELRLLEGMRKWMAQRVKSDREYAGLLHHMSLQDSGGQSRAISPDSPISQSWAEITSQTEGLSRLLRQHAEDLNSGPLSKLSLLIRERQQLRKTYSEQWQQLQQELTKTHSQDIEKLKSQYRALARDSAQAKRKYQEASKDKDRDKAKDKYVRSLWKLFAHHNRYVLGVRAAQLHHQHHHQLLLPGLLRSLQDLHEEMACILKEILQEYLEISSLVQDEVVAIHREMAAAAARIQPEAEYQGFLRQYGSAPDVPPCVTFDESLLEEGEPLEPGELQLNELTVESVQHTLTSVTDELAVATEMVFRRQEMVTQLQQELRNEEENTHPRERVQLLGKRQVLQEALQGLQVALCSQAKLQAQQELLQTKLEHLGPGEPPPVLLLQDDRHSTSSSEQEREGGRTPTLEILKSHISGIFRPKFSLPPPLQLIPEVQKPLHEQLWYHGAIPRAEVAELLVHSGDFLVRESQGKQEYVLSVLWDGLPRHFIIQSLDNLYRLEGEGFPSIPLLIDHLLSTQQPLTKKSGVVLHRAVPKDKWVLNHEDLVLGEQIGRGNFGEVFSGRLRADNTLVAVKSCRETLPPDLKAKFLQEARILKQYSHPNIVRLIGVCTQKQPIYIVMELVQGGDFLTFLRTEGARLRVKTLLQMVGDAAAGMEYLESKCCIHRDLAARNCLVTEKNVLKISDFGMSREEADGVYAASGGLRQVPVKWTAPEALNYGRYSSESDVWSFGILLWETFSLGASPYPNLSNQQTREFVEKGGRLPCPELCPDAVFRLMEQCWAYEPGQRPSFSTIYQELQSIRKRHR
Experiment: DSF Tm panel
Format: binding
Settings: 10 μM compound

Row | Compound | ΔTm at 10 µM [°C]
31 | Cc1cc(Br)ccc1CNC(=O)Nc1ccc2cc1OCCOCCNc1ccn3ncc-2c3n1 [compound 24] | 0.5
32 | Cc1ccc(F)cc1CNC(=O)Nc1ccc2cc1OCCOCCNc1ccn3ncc-2c3n1 [compound 26] | 0.3
33 | O=C(NCc1ccccc1C(F)(F)F)Nc1ccc2cc1OCCOCCNc1ccn3ncc-2c3n1 [compound 27] | 0.7

Target: T12, MAPK1A (Homo sapiens, UniProt P28482)
T12 construct: purchased in-house DSF kinase panel (SGC-style construct names; the trailing letter is the construct ID)
T12 sequence (P28482 whole entry): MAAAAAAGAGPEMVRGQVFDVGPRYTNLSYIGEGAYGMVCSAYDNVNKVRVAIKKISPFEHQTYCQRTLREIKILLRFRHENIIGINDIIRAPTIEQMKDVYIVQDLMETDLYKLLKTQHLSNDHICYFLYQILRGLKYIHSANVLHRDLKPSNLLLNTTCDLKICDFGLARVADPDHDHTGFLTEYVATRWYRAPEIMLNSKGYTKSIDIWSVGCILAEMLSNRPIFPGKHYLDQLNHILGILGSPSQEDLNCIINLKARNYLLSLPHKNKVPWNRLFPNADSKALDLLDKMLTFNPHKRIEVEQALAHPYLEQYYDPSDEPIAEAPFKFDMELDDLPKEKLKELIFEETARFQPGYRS
Experiment: DSF Tm panel
Format: binding
Settings: 10 μM compound

Row | Compound | ΔTm at 10 µM [°C]
34 | Cc1cc(Br)ccc1CNC(=O)Nc1ccc2cc1OCCOCCNc1ccn3ncc-2c3n1 [compound 24] | 0.7
35 | Cc1ccc(F)cc1CNC(=O)Nc1ccc2cc1OCCOCCNc1ccn3ncc-2c3n1 [compound 26] | 0.8
36 | O=C(NCc1ccccc1C(F)(F)F)Nc1ccc2cc1OCCOCCNc1ccn3ncc-2c3n1 [compound 27] | 0.9

Target: T13, EPHA7A (Homo sapiens, UniProt Q15375)
T13 construct: purchased in-house DSF kinase panel (SGC-style construct names; the trailing letter is the construct ID)
T13 sequence (Q15375 590-899): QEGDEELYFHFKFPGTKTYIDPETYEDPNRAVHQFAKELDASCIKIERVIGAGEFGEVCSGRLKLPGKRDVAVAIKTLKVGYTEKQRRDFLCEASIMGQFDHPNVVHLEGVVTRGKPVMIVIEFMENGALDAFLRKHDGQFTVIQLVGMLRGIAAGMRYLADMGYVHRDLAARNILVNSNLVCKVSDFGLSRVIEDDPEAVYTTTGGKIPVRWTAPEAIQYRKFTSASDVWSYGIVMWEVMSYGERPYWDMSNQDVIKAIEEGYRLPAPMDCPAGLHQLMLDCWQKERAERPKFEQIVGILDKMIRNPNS
Experiment: DSF Tm panel
Format: binding
Settings: 10 μM compound

Row | Compound | ΔTm at 10 µM [°C]
37 | Cc1cc(Br)ccc1CNC(=O)Nc1ccc2cc1OCCOCCNc1ccn3ncc-2c3n1 [compound 24] | 2
38 | Cc1ccc(F)cc1CNC(=O)Nc1ccc2cc1OCCOCCNc1ccn3ncc-2c3n1 [compound 26] | 2
39 | O=C(NCc1ccccc1C(F)(F)F)Nc1ccc2cc1OCCOCCNc1ccn3ncc-2c3n1 [compound 27] | 3

Target: T14, CAMK2DA (Homo sapiens, UniProt Q13557)
T14 construct: purchased in-house DSF kinase panel (SGC-style construct names; the trailing letter is the construct ID)
T14 sequence (Q13557 11-309): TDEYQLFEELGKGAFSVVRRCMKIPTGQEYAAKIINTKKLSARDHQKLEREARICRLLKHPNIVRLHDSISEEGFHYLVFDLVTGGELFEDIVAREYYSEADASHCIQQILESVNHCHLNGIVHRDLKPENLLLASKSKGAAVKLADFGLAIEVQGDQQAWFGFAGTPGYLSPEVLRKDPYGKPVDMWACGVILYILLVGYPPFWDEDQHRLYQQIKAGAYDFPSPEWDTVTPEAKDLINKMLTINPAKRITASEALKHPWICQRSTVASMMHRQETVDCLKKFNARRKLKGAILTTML
Experiment: DSF Tm panel
Format: binding
Settings: 10 μM compound

Row | Compound | ΔTm at 10 µM [°C]
40 | Cc1cc(Br)ccc1CNC(=O)Nc1ccc2cc1OCCOCCNc1ccn3ncc-2c3n1 [compound 24] | 2.2
41 | Cc1ccc(F)cc1CNC(=O)Nc1ccc2cc1OCCOCCNc1ccn3ncc-2c3n1 [compound 26] | 2.4
42 | O=C(NCc1ccccc1C(F)(F)F)Nc1ccc2cc1OCCOCCNc1ccn3ncc-2c3n1 [compound 27] | 2.5
